Data as given in patent US20260347364A1, “PYRAZOLO[4,3-F]QUINAZOLINE DERIVATIVES AS MODULATORS OF G12D MUTANT KRAS USEFUL FOR THE TREATMENT OF CANCER” (JAZZ PHARMACEUTICALS IRELAND LTD., priority 2023, published 2026).
pIC50: −log10 of the molar value.

Experiments:
[1] = biological target: T1, KRAS G12D (Homo sapiens, UniProt P01116, G12D); test: HTRF nucleotide exchange assay, KRAS G12D; format: biochemical; details: class symbols; for pIC50: HTRF nucleotide exchange assay (NEA)
T1 construct: aa1-188 KRAS WT, HRAS WT, NRAS WT, or KRAS containing the G12D

[2] = biological target: T2, KRAS WT (Homo sapiens, UniProt P01116); test: HTRF nucleotide exchange assay, KRAS WT; format: biochemical; details: class symbols; for pIC50: HTRF nucleotide exchange assay (NEA)
T2 construct: aa1-188 KRAS WT

pIC50 [1]	KRAS^WT NEA [2]	pIC50 [2]	KRAS^G12D NEA [1]	Structure (SMILES)
5.00 to 7.00	D (<49% inhibition at 10 μM)			C#Cc1c(F)ccc2cc(O)cc(-c3cc4nc(OC[C@@]56CCCN5C[C@H](F)C6)nc(N5CC6C(=O)NC(=O)C6C5)c4c4cn(C)nc34)c12 (stereo partly drawn) [Example 37]
5.00 to 7.00		5.00 to 7.00		Cc1c(-c2ncc(F)c3sc(N)c(C#N)c23)c2nn(C)cc2c2c(N3CCOCC(C)(O)C3)nc(OC[C@@]34CCCN3C[C@H](F)C4)nc12 (stereo partly drawn) [Example 108, 2-amino-7-fluoro-4-[7-[[(2R,8S)-2-fluoro-1,2,3,5,6,7-hexahydropyrrolizin-8-yl]methoxy]-9-(6-hydroxy-6-methyl-1,4-oxazepan-4-yl)-2,5-dimethyl-pyrazolo[4,3-f]quinazolin-4-yl]thieno[3,2-c]pyridine-3-carbonitrile]
≥ 8.00		7.00 to 8.00		CCc1c(F)ccc2cc(O)cc(-c3c(F)c4nc(OCCC5CN(C)CCO5)nc(N5CCOCC(C)(O)C5)c4c4cn(C)nc34)c12 (stereo not drawn) [Example 224, 4-[4-(8-ethyl-7-fluoro-3-hydroxy-1-naphthyl)-5-fluoro-2-methyl-7-[2-(4-methylmorpholin-2-yl)ethoxy]pyrazolo[4,3-f]quinazolin-9-yl]-6-methyl-1,4-oxazepan-6-ol]
5.00 to 7.00		5.00 to 7.00		CCc1c(F)ccc2cc(O)cc(-c3cc4nc(OC[C@@]56CCCN5C[C@H](F)C6)nc(N5CCC(C)(OC)CC5)c4c4cn(C)nc34)c12 [Example 119, 5-ethyl-6-fluoro-4-[9-(4-methoxy-4-methyl-1-piperidyl)-2-methyl-7-[[(2R,8S)-2-fluoro-1,2,3,5,6,7-hexahydropyrrolizin-8-yl]methoxy]pyrazolo[4,3-f]quinazolin-4-yl]naphthalen-2-ol]
≥ 8.00		≥ 8.00		CCc1c(F)ccc2cc(O)cc(-c3c(C)c4nc(OC[C@@]56CCCN5C[C@H](F)C6)nc(N5CCCn6nc(C(=O)N7CCOCC7)cc6C5)c4c4cn(C)nc34)c12 [Example 209, [5-[4-(8-ethyl-7-fluoro-3-hydroxy-1-naphthyl)-7-[[(2R,8S)-2-fluoro-1,2,3,5,6,7-hexahydropyrrolizin-8-yl]methoxy]-2,5-dimethyl-pyrazolo[4,3-f]quinazolin-9-yl]-4,6,7,8-tetrahydropyrazolo[1,5-a][1,4]diazepin-2-yl]-morpholino-methanone]
≥ 8.00		≥ 8.00		C#Cc1c(F)ccc2cc(O)cc(-c3cc4nc(OC[C@@]56CCCN5C[C@H](F)C6)nc(N5CCCn6nc(C(=O)N(C)C)cc6C5)c4c4cn(C)nc34)c12 [Example 65, 5-[4-(8-ethynyl-7-fluoro-3-hydroxy-1-naphthyl)-2-methyl-7-[[(2R,8S)-2-fluoro-1,2,3,5,6,7-hexahydropyrrolizin-8-yl]methoxy]pyrazolo[4,3-f]quinazolin-9-yl]-N,N-dimethyl-4,6,7,8-tetrahydropyrazolo[1,5-a][1,4]diazepine-2-carboxamide]
≥ 8.00		≥ 8.00		CCc1c(F)ccc2cc(O)cc(-c3c(F)c4nc(OC[C@@]5(CN(C)C)CC5(F)F)nc(N5CCOCC(C)(O)C5)c4c4cn(C)nc34)c12 (stereo partly drawn) [Example 236, 4-[4-(8-ethyl-7-fluoro-3-hydroxy-1-naphthyl)-5-fluoro-2-methyl-7-[[(1S)-1-[(dimethylamino)methyl]-2,2-difluoro-cyclopropyl]methoxy]pyrazolo[4,3-f]quinazolin-9-yl]-6-methyl-1,4-oxazepan-6-ol]
≥ 8.00		≥ 8.00		CCc1c(F)ccc2cc(O)cc(-c3cc4nc(OCC56CCCN5CCC6)nc(N5CCCC(C)(O)C5)c4c4cn(C)nc34)c12 (stereo not drawn) [Example 28, 1-[4-(8-ethyl-7-fluoro-3-hydroxy-1-naphthyl)-7-(1,2,3,5,6,7-hexahydropyrrolizin-8-ylmethoxy)-2-methyl-pyrazolo[4,3-f]quinazolin-9-yl]-3-methyl-piperidin-3-ol]
≥ 8.00		≥ 8.00		CCc1c(F)ccc2cc(O)cc(-c3c(F)c4nc(OC[C@@H]5CCN5)nc(N5CCOCC(C)(O)C5)c4c4cn(C)nc34)c12 (stereo partly drawn) [Example 156, 4-[4-(8-ethyl-7-fluoro-3-hydroxy-1-naphthyl)-5-fluoro-2-methyl-7-[[(2S)-azetidin-2-yl]methoxy]pyrazolo[4,3-f]quinazolin-9-yl]-6-methyl-1,4-oxazepan-6-ol]
≥ 8.00		7.00 to 8.00		CCc1c(F)ccc2cc(O)cc(-c3cc4nc(OC[C@@]56CCCN5C[C@H](F)C6)nc(N5CCCC(CO)C5)c4c4cn(C)nc34)c12 (stereo partly drawn) [Example 114, 5-ethyl-6-fluoro-4-[9-[3-(hydroxymethyl)-1-piperidyl]-2-methyl-7-[[(2R,8S)-2-fluoro-1,2,3,5,6,7-hexahydropyrrolizin-8-yl]methoxy]pyrazolo[4,3-f]quinazolin-4-yl]naphthalen-2-ol]
≥ 8.00		7.00 to 8.00		CCc1c(F)ccc2cc(O)cc(-c3c(F)c4nc(OCC5(CN6CC(F)(F)C6)CC5)nc(N5CCOCC(C)(O)C5)c4c4cn(C)nc34)c12 (stereo not drawn) [Example 191, 4-[7-[[1-[(3,3-difluoroazetidin-1-yl)methyl]cyclopropyl]methoxy]-4-(8-ethyl-7-fluoro-3-hydroxy-1-naphthyl)-5-fluoro-2-methyl-pyrazolo[4,3-f]quinazolin-9-yl]-6-methyl-1,4-oxazepan-6-ol]
5.00 to 7.00		5.00 to 7.00		CCc1c(F)ccc2cc(O)cc(-c3cc4nc(OCC5CCCN(C)C5)nc(N5CCCOCC5)c4c4cn(C)nc34)c12 (stereo not drawn) [Example 32, 5-ethyl-6-fluoro-4-[2-methyl-7-[(1-methyl-3-piperidyl)methoxy]-9-(1,4-oxazepan-4-yl)pyrazolo[4,3-f]quinazolin-4-yl]naphthalen-2-ol]
≥ 8.00		≥ 8.00		CCc1c(F)ccc2cc(O)cc(-c3c(F)c4nc(OC[C@@]56CCCN5C[C@H](F)C6)nc(N5CCCC(C)(O)C5)c4c4cn(C)nc34)c12 (stereo partly drawn) [Example 100, (3R)-1-[4-bromo-5-fluoro-2-methyl-7-[[(2R,8S)-2-fluoro-1,2,3,5,6,7-hexahydropyrrolizin-8-yl]methoxy]pyrazolo[4,3-f]quinazolin-9-yl]-3-methyl-piperidin-3-ol]
	D (<49% inhibition at 10 μM)		D (<49% inhibition at 10 μM)	Cn1cc2c(n1)c(-c1c(O)cccc1F)cc1nc(OC[C@@]34CCCN3C[C@H](F)C4)nc(N3CCCOCC3)c12 [Example 4, 3-fluoro-2-[2-methyl-9-(1,4-oxazepan-4-yl)-7-[[(2R,8S)-2-fluoro-1,2,3,5,6,7-hexahydropyrrolizin-8-yl]methoxy]pyrazolo[4,3-f]quinazolin-4-yl]phenol]
≥ 8.00		≥ 8.00		CCc1c(F)ccc2cc(O)cc(-c3cc4nc(OC[C@@]56CCCN5C[C@H](F)C6)nc(N5CCCn6nc(C(=O)N7CCCC7)cc6C5)c4c4cn(C)nc34)c12 [Example 23, [5-[4-(8-ethyl-7-fluoro-3-hydroxy-1-naphthyl)-2-methyl-7-[[(2R,8S)-2-fluoro-1,2,3,5,6,7-hexahydropyrrolizin-8-yl]methoxy]pyrazolo-[4,3-f]quinazolin-9-yl]4,6,7,8-tetrahydropyrazolo[1,5-a][1,4]diazepin-2-yl]-pyrrolidin-1-yl-methanone]
≥ 8.00		7.00 to 8.00		CN(C)C(=O)c1cc2n(n1)CCCN(c1nc(OC[C@@]34CCCN3C[C@H](F)C4)nc3cc(-c4ccc(F)c5sc(N)c(C#N)c45)c4nn(C)cc4c13)C2 [Example 81, 5-[4-(2-amino-3-cyano-7-fluoro-benzothiophen-4-yl)-7-[[(2R,8S)-2-fluoro-1,2,3,5,6,7-hexahydropyrrolizin-8-yl]methoxy]-2-methyl-pyrazolo[4,3-f]quinazolin-9-yl]-N,N-dimethyl-4,6,7,8-tetrahydropyrazolo[1,5-a][1,4]diazepine-2-carboxamide]
≥ 8.00		7.00 to 8.00		CCc1c(F)ccc2cc(O)cc(-c3cc4nc(OC[C@@]56CCCN5C[C@H](F)C6)nc(N5CCCNCC5)c4c4cn(C)nc34)c12 [Example 20, 4-[9-(1,4-diazepan-1-yl)-2-methyl-7-[[(2R,8S)-2-fluoro-1,2,3,5,6,7-hexahydropyrrolizin-8-yl]methoxy]pyrazolo[4,3-f]quinazolin-4-yl]-5-ethyl-6-fluoro-naphthalen-2-ol]
7.00 to 8.00		7.00 to 8.00		CCc1c(F)ccc2cc(O)cc(-c3cc4nc(OC[C@@]56CCCN5C[C@H](F)C6)nc(N5CCCC6(CCO6)C5)c4c4cn(C)nc34)c12 (stereo partly drawn) [Example 125, 5-ethyl-6-fluoro-4-[2-methyl-9-(1-oxa-8-azaspiro[3.5]nonan-8-yl)-7-[[(2R,8S)-2-fluoro-1,2,3,5,6,7-hexahydropyrrolizin-8-yl]methoxy]pyrazolo[4,3-f]quinazolin-4-yl]naphthalen-2-ol]
≥ 8.00		≥ 8.00		CCc1c(F)ccc2cc(O)cc(-c3cc4nc(OC[C@@]56CCCN5C[C@H](F)C6)nc(N5CCCCC(C)(O)C5)c4c4cn(C)nc34)c12 (stereo partly drawn) [Example 10, 1-[4-(8-ethyl-7-fluoro-3-hydroxy-1-naphthyl)-2-methyl-7-[[(2R,8S)-2-fluoro-1,2,3,5,6,7-hexahydropyrrolizin-8-yl]methoxy]pyrazolo[4,3-f]quinazolin-9-yl]-3-methyl-azepan-3-ol]
≥ 8.00		7.00 to 8.00		CN(C)C(=O)c1cc2n(n1)CCCN(c1nc(OC[C@@]34CCCN3C[C@H](F)C4)nc3cc(-c4cccc5sc(N)c(C#N)c45)c4nn(C)cc4c13)C2 [Example 76, 5-[4-(2-amino-3-cyano-benzothiophen-4-yl)-7-[[(2R,8S)-2-fluoro-1,2,3,5,6,7-hexahydropyrrolizin-8-yl]methoxy]-2-methyl-pyrazolo[4,3-f]quinazolin-9-yl]-N,N-dimethyl-4,6,7,8-tetrahydropyrazolo[1,5-a][1,4]diazepine-2-carboxamide]
≥ 8.00		≥ 8.00		CCc1c(F)ccc2cc(O)cc(-c3cc4nc(OC[C@@]56CCCN5C[C@H](F)C6)nc(N5CCOC(CO)C5)c4c4cn(C)nc34)c12 (stereo partly drawn) [Example 115, 5-ethyl-6-fluoro-4-[9-[2-(hydroxymethyl)morpholin-4-yl]-2-methyl-7-[[(2R,8S)-2-fluoro-1,2,3,5,6,7-hexahydropyrrolizin-8-yl]methoxy]pyrazolo[4,3-f]quinazolin-4-yl]naphthalen-2-ol]
